# From a melting point compilation (Tetko et al.; mined from patent text by program, amines drawn as free bases though some values may be those of a salt)
row,SMILES,melting point
1,Cc1c(C)c(N2C(=O)c3ccccc3C2=O)c(C)c2c1OC(C)(C)C2c1ccc(C(C)C)cc1 (stereo unspecified),180 to 181 °C
2,CC(CC#N)CN1C(=O)c2ccccc2S1(=O)=O (stereo unspecified),83 to 84 °C
3,C=CCN(CC=C)Cc1noc(-c2ncn3c2CN(C)C(=O)c2c(Cl)cccc2-3)n1,125 to 130 °C
4,CN1CCCC2C(=NO)CCCC21 (stereo unspecified),169 to 171 °C
5,CCC1(CCCN=[N+]=[N-])C(=O)NC(=O)NC1=O,182 to 184 °C
6,O=C(CCCc1cccs1)N[C@H](Cc1ccc(C(F)(F)F)cc1)[C@@H](O)c1cccc2ccccc12 (racemic),139 to 140 °C
7,CCOC(=O)C(=O)Nc1ccc2[nH]c(=O)oc2c1,180 to 186 °C
8,c1cc(Nc2nncc3ccccc23)cc(-n2ccnc2)c1,135 to 137 °C
9,COc1ccc(S(=O)(=O)N(C)CP(=O)(O)O)cc1N,218 to 220 °C
10,COc1ccc2oc(C)c(Cc3cccc(NS(=O)(=O)C(F)(F)F)c3)c(=O)c2c1,172 to 174 °C
11,N#Cc1ccccc1C1CNC([N+](=O)[O-])CCN1 (stereo unspecified),101 °C
12,COc1ccc(OC)c2c1CCC(NC(C)=O)C2 (stereo unspecified),156 to 158 °C
13,N=C(N)NC(=O)OCc1ccccc1,120 to 122 °C
14,CCCCOC(=O)C(N)C=CCP(=O)(O)O (stereo unspecified),160 to 161 °C
15,COC(=O)C(Oc1cc(OCc2ccsc2)ccc1C#N)c1ccccc1 (racemic),112 to 114 °C
16,Nc1ncc(S(=O)c2ccc(F)cc2F)s1 (stereo unspecified),171 to 172 °C
17,CC(C)(C)C1=C(C#N)C(c2cccc(C#N)c2Br)c2c[nH]nc2N1 (stereo unspecified),251 °C
18,ClCCN(CCCl)CCOc1ccc(Nc2c3ccccc3nc3c(OCCN(CCCl)CCCl)cccc23)cc1,105 to 106 °C
19,Cc1ccccc1C=C1CSCC(=Cc2ccccc2C)C1=O,123 to 125 °C
20,O=C(Nc1cccc(S(=O)(=O)NCC(F)(F)F)c1)c1cnn2c(C(F)F)cc(-c3ccc(C(F)(F)F)cc3)nc12,257 °C
21,OC[C@@H]1C[C@@H](C2CCCCC2)CN1,98 to 99 °C
22,S=c1c2[nH]cnc2c2cccnc2n1-c1ccccc1,> 300 °C

row,SMILES,melting point
1,COC(=O)c1cc([N+](=O)[O-])cc([N+](=O)[O-])c1SCc1ccccc1,113 to 114 °C
2,CC(C)(C)NC(=O)[C@@H]1Cc2ccccc2CN1C(=O)OCc1ccccc1,105 to 106 °C
3,CC(=NO)c1ccnc(N(C)C)c1,145 to 148 °C
4,O=[N+]([O-])c1ccccc1NCc1ccccc1,65 to 67 °C
5,Cc1ccc(CCc2ccccc2Br)c(N)c1,67 to 69 °C
6,CSC1C(=O)Nc2c(Oc3ccccc3N)cccc21 (stereo unspecified),168 to 170 °C
7,CNc1ccc(-c2ocnc2-c2cc(OC)cc(OC)c2)cc1F,140 to 142 °C
8,Cc1cc(-c2cc(C(F)F)n3ncc(C(=O)Nc4cccc(S(N)(=O)=O)c4)c3n2)ccc1Cl,264 °C
9,CC(C)NC(=O)OCC(=O)c1ccc(Oc2ccccc2)cc1,89 to 90 °C
10,CSc1ncc2cc(C)c(N)nc2n1,268 to 270 °C
11,CCO/C(=N/OC(C)=O)C1Cc2cc(C(=O)CC)c(O)c(Cl)c2O1 (stereo unspecified),140 to 142 °C
12,O=C1CN(Cc2n[nH]c(=O)[nH]2)[C@@H](c2ccccc2)[C@@H](COCc2cc(C(F)(F)F)cc(C(F)(F)F)c2)N1,138 to 140 °C
13,CN1C(=O)N(c2ccc(C#N)c(C(F)(F)F)c2)C(=O)C1(CO)c1ccccc1 (stereo unspecified),160 °C
14,O=C(Cc1ccccc1Br)NCC1OC(n2cc(Br)c(=O)[nH]c2=O)CC1O (stereo unspecified),222 to 223 °C
15,O=C(Nc1ccc(Cl)cc1)O[C@H]1COC(c2ccccc2)=N[C@@H]1c1ccccc1 (racemic),200 °C
16,CCOCc1nc2c(N)nc3cc(-c4ccc(F)nc4)cnc3c2n1CC(C)(C)O,218 to 220 °C
17,C#CCCCOc1c(C)cc(-c2nc(C)no2)cc1C,38 to 40 °C
18,Cc1c(/C=C/c2cccc([N+](=O)[O-])c2C)cccc1[N+](=O)[O-],246 °C
19,Cc1nc2ccc3c(c2o1)C(=CC#N)CC3,180 to 182 °C
20,N=C(Nc1ccc(CCNCc2ccccc2Cl)cc1)c1cccs1,81 to 82 °C
21,COC(=O)C1=C(c2ccc(OC)cc2)C(c2ccc(OC)cc2)OC1=O (stereo unspecified),107 to 109 °C

# Other lines, results leading:
row,melting point,SMILES
1,81 °C,O=C(CC1=CC(O)CC1=O)Oc1ccc2ccccc2c1 (stereo unspecified)
2,93 to 94 °C,Oc1nn(Cc2ccccc2)cc1CCCC1OCCO1
3,150 to 151 °C,CCC1(CC)OC(=O)N(c2cccc(Cl)c2)c2ccccc21
4,118 to 119 °C,Clc1ccc2c(c1)C(c1ccccc1)=NCc1ccccc1-2
5,191 °C,COc1ccc(Cc2c[nH]c(=O)c3ccccc23)cn1
6,59 to 63 °C,Cc1cc(C)c(N2CCCc3c2nn(C)c3-c2ccccc2C(F)(F)F)c(C)c1
7,177 to 179 °C,CC(C)NC(=O)c1ccc(-c2ccc3nnn(Cc4ccc5ncccc5c4)c3n2)cc1F
8,63 to 71 °C,CCC1CCCCc2c1oc(=O)c(C(c1ccccc1)C1CC1)c2O (stereo unspecified)
9,101 °C,O=S1(=O)c2cccc3cccc(c23)N1CCCN1CCN(c2ccccn2)CC1
10,78 to 80 °C,CS(=O)(=O)Nc1cc(OC[C@@H](O)CNC2CCN(c3ccc(C#N)cc3)CC2)ccc1O
11,188 °C,Cc1cc(C(=O)O)n(-c2ccc(F)cc2)n1
12,120 to 126 °C,Fc1ccc(F)c(-c2nc(-c3ccccn3)no2)c1
13,141 °C,CCN1C(=O)CCCc2c1ccc(Nc1ncc(Cl)c(N[C@@H]3CCC[C@H]3NS(C)(=O)=O)n1)c2OC (relative stereo)
14,252 to 254 °C,O=C(O)C1=Cc2cc(-c3ccc(OC(F)(F)F)cc3)ccc2OCC1
15,112 to 113 °C,CCOC(=O)C1=C(C)NC(CO)=C(C(=O)OCC)C1c1ccccc1[N+](=O)[O-] (stereo unspecified)
16,124 °C,OC(Cc1ccc(Cl)cc1Cl)(Cn1cncn1)c1ccc(-c2ccccc2)cc1 (stereo unspecified)
17,192 °C,O=c1cc(-c2ccccc2)oc2c(CN3CCN(CCO)CC3)c(O)c(O)c(O)c12
18,168 to 170 °C,CN(C)CC1Cn2cc(C(=O)NCc3ccc(Cl)cc3)c(=O)c3cc(CN4CCOCC4)cc(c32)O1 (stereo unspecified)
19,75 to 76 °C,CCc1nc(-c2cccc(C)c2)c(-c2ccnc(N(C)C(=O)Cc3ccccc3)c2)s1
20,68 to 70 °C,CCc1cc(NC(=O)N2CCN(c3cc(OC)cc(OC)c3)CC2)c(N2CCNCC2)nc1C
21,185 to 187 °C,Cn1cc(C2=C(c3cn(CCCO)c4ccccc34)C(=O)NC2=O)c2ccccc21
22,140 to 145 °C,Cc1ccc(-c2ccccc2C(=O)Nc2ccc(C(=O)N3C[C@@H]4CCCN4C(=S)c4ccccc43)cc2)cc1
23,91 to 92 °C,O=C(O)CCc1cn(Cc2ccc(OCc3cccc(-c4cnccn4)c3)cc2)cc1-c1ccccc1
24,72 to 110 °C,CCOC(=O)C(C(=O)OCC)c1ccc(OCC2=NCCN2)cc1
25,126 to 127 °C,CCN(CC)CCCCC1CCN(C(=O)N2c3cc(Cl)ccc3C(=O)Nc3cccnc32)CC1
26,71 to 72 °C,Cc1ccc(COC(=O)CCC2CCC(=O)N2)cc1 (stereo unspecified)
27,272 to 275 °C,Cc1ccc(F)cc1C(=O)Nc1ccc(C(=O)O)cc1
28,217 to 219 °C,COc1ccc(OC)c2c1C[C@@H](O)[C@H](N1CCN(c3ccccc3C)CC1)C2 (relative stereo)
